Experimental data taken from US20230338495A1, “Vaccine Compositions and Antibodies For Lyme Disease” (priority 2020, published 2023).

Experiments:
[1] = tested on: IgG in Lyme Disease patient sera; experiment: MSD-ECL assay with Biotin-BBGL-1 / Biotin-BBGL-2 coated streptavidin plates, anti-IgG Fc detection; type: binding, human; details: biotinylated antigen coated at 4 ug/mL; for IgG titer, EU: NC= 166.75
Method: (§1) A Meso Scale Discovery Electrochemiluminescence (MSD-ECL) assay was developed using Biotin-BBGL-1 and Biotin-BBGL-2 to measure antibody titers in Lyme Disease patient samples. The assay involved first blocking MSD streptavidin gold plate with 4% BGG (bovine gamma globulin in PBS), washing the plates with PBS and the coating Biotin-BBGL-1 and Biotin-BBGL-2 at concentration of 4 ug/mL (diluted in 4% BGG) for coating for IgG side of plate and at concentration of 1 ug/mL (diluted in 4% BGG) for coating for IgM side of plate. Serum samples (diluted 1:5) were then added to each well, incubated, and washed.
(§2) Detection reagents (Sulfo tag anti-lgG Fc or anti-IgM) were then added, incubated, and washed, followed by reading the plates on a Sector Imager (Meso Scale Diagnostic, Rockville, MD USA).

[2] = tested on: IgM in Lyme Disease patient sera; experiment: MSD-ECL assay with Biotin-BBGL-1 / Biotin-BBGL-2 coated streptavidin plates, anti-IgM detection; type: binding, human; details: biotinylated antigen coated at 1 ug/mL; for IgM titer, EU: NC= 189.75
Method: as §1, §2

[3] = tested on: Borrelia burgdorferi; experiment: In vitro neutralization of Borrelia burgdorferi by Day 30 serum samples from immunized mice; type: in vivo; details: Day 30 sera of C3H/HeJ mice, n=6 per group; dosing at day 1 (77 µg/mouse per immunization, 10 µg QS-21/mouse)
Method: A pilot study in mice was conducted to determine the safety and in vitro efficacy of the BBGL-1 and BBGL-2 liposome vaccines in the absence or presence of the adjuvant QS-21 (Desert King International, San Diego, CA USA). Eighty-four (42 male, 42 female) C3H/HeJ mice (The Jackson Laboratory, Bar Harbor, ME USA), at approximately 7 weeks were used in the study, which is outlined in Table 17a and 17b.
7 Group of Mice (6 male and 6 female in each group) were given either 1) adjuvant alone, 2) Immunization A, 3) Adjuvant + Immunization A, 4) Immunization B, 5) Adjuvant + Immunization B, 6) Immunization A + Immunization B, or 7) Adjuvant + Immunization A + Immunization B
Immunization A and Immunization B were administered at 77 µg/mouse doses at day 1 and Day 30. Groups receiving adjuvant received 10 µg QS-21/mouse at Day 1 and Day 30.
Whole blood was collected into serum separator tubes at baseline and days 7, 15, 30, 45, and 60. Blood was allowed to clot and centrifuged at 1500xg and 10° C. for 15 minutes. Serum was aliquoted and stored at -30° C.
Serum aliquots were evaluated after 30 days, for neutralizing antibodies against Borrelia burgdorferi, B. mayonii, B. afzelii, and B. garinii using laboratory developed assays.
In vitro neutralization of Borrelia burgdorferi from Day 30 assessed with half of the mouse serum samples (n=6 per group) are shown in FIG. 7a.

Row | Compound | IgG titer, Fold/Baseline ([1]; patient L1 serum diluted 1:5) [Fold/Baseline] | IgG titer, EU ([1]; patient L1 serum diluted 1:5) [EU] | IgG titer, Fold/Baseline ([1]; patient L2 serum diluted 1:5) [Fold/Baseline] | IgG titer, EU ([1]; patient L2 serum diluted 1:5) [EU] | IgG titer, Fold/Baseline ([1]; patient L3 serum diluted 1:5) [Fold/Baseline] | IgG titer, EU ([1]; patient L3 serum diluted 1:5) [EU] | IgM titer, Fold/Baseline ([2]; patient L1 serum diluted 1:5) [Fold/Baseline] | IgM titer, EU ([2]; patient L1 serum diluted 1:5) [EU] | IgM titer, Fold/Baseline ([2]; patient L2 serum diluted 1:5) [Fold/Baseline] | IgM titer, EU ([2]; patient L2 serum diluted 1:5) [EU] | IgM titer, Fold/Baseline ([2]; patient L3 serum diluted 1:5) [Fold/Baseline] | IgM titer, EU ([2]; patient L3 serum diluted 1:5) [EU] | neutralization activity [3] [%]
1 | CCCCCCCCCCCCCCCC(=O)OC[C@H]1O[C@@H](O[C@H]2CC[C@@]3(C)C(=CC[C@H]4[C@@H]5CC[C@H]([C@H](C)CCCC(C)C)[C@@]5(C)CC[C@@H]43)C2)[C@H](O)[C@@H](O)[C@H]1O [BBGL1, cholesteryl 6-O-palmitoyl-β-D-galactopyranoside] | 1.3 | 218.50 | 0.9 | 143.50 | 1.0 | 166.00 | 21 | 4055.50 | 2 | 390.00 | 7 | 1338.00 | –
2 | CCCCCCCC/C=C\CCCCCCCC(=O)OC[C@H](CO[C@H]1O[C@H](CO)[C@H](O)[C@H](O)[C@H]1O)OC(=O)CCCCCCCCCCCCCCC [BBGL2, 1-oleoyl-2-palmitoyl-3-(α-D-galactosyl)-sn-glycerol] | 16 | 2720.00 | 4 | 619.50 | 1.1 | 178.00 | 18 | 3458.00 | 2 | 344.50 | 6 | 1229.50 | –
3 | QS-21 | – | – | – | – | – | – | – | – | – | – | – | – | > 15
